Consider nine compounds from the NIST ThermoML archive (doi:10.1016/j.jct.2017.06.008).

For data set [1] the following is noted: 100 kPa, Liquid; for speed of sound: Frequency=3 MHz, Single path-length method; for mass density: Vibrating tube method.
Data set [2] is described as follows: refractive index (Na D-line) (dimensionless). The following applies: 100 kPa, Liquid, Standard Abbe refractometry.
The nature of data set [3]: xn = mol fraction of the nth substance listed. The following applies: 100 kPa, Liquid, x2 = 0; for speed of sound: Frequency=3 MHz, Single path-length method; for mass density: Vibrating tube method.
Data set [4] is described as follows: refractive index (Na D-line) (dimensionless); xn = mol fraction of the nth substance listed. The following applies: 100 kPa, Liquid, Standard Abbe refractometry, x2 = 0.

Where “and” joins values, the source holds several entries; their conditions need not be identical. Identical values can stand only once. Numbers after ± are expanded uncertainties.

The speed of sound is the propagation velocity of pressure waves in the medium. The term mass density denotes the mass of a sample divided by its volume. In general, refractive index refers to a measure of how strongly the sample bends light.

As for `C1CCCCC1` [cyclohexane], the speed of sound in data set [1] (293.15 K) is recorded as 1279.5 ± 1.4 m/s; in data set [1] (303.15 K), 1230.1 ± 1.4 m/s; in data set [1] (313.15 K), 1181.8 ± 1.4 m/s. The mass density in data set [1] (293.15 K) is 779 ± 3 kg/m3 and 778 ± 3 kg/m3; in data set [1] (303.15 K), 769 ± 3 kg/m3; in data set [1] (313.15 K), 760 ± 3 kg/m3 and 759 ± 3 kg/m3. Further, the refractive index was 1.426 ± 0.005 in data set [2] (293.15 K), 1.421 ± 0.005 in data set [2] (303.15 K) and 1.415 ± 0.005 in data set [2] (313.15 K).

Consider `CC(C)=O` [acetone], for which the speed of sound in data set [1] (293.15 K) stood at 1184.3 ± 1.4 m/s; in data set [1] (303.15 K) it was 1139.4 ± 1.4 m/s; in data set [1] (313.15 K), 1094.6 ± 1.4 m/s. For the same compound, the mass density is 790 ± 3 kg/m3 in data set [1] (293.15 K), 779 ± 3 kg/m3 in data set [1] (303.15 K) and 767 ± 3 kg/m3 in data set [1] (313.15 K). Further, the figures for the refractive index in data set [2] (293.15 K), in data set [2] (303.15 K) and in data set [2] (313.15 K) were 1.359 ± 0.005, 1.353 ± 0.005 and 1.348 ± 0.005, respectively.

In the case of `CC#N` [acetonitrile], the figures for the speed of sound in data set [1] (293.15 K), in data set [1] (303.15 K) and in data set [1] (313.15 K) were 1299.7 ± 1.3 m/s, 1258.8 ± 1.3 m/s and 1218.4 ± 1.3 m/s, respectively. The mass density in data set [1] (293.15 K) came to 782 ± 3 kg/m3; in data set [1] (303.15 K), 771 ± 3 kg/m3; in data set [1] (313.15 K) it was 760 ± 3 kg/m3. For the same compound, the values for the refractive index in data set [2] (293.15 K), in data set [2] (303.15 K) and in data set [2] (313.15 K) were 1.344 ± 0.005, 1.339 ± 0.005 and 1.334 ± 0.005, respectively.

For `CC(=O)CC(C)C` [4-methylpentan-2-one], the figures for the speed of sound in data set [1] (293.15 K), in data set [1] (303.15 K) and in data set [1] (313.15 K) were 1212.3 ± 1.6 m/s, 1171.4 ± 1.6 m/s and 1131.4 ± 1.6 m/s, respectively. Moreover, the mass density in data set [1] (293.15 K) is 801 ± 3 kg/m3 and 800 ± 3 kg/m3; in data set [1] (303.15 K) it was 792 ± 3 kg/m3; in data set [1] (313.15 K), 782 ± 3 kg/m3. The refractive index in data set [2] (293.15 K) was 1.396 ± 0.005; in data set [2] (303.15 K) it was 1.391 ± 0.005; in data set [2] (313.15 K) it was 1.387 ± 0.005.

For `CC(C)=O` [acetone] + CC(=O)CC(C)C, the speed of sound was determined as 1184.3 ± 1.4 m/s in data set [3] (293.15 K), 1139.4 ± 1.4 m/s in data set [3] (303.15 K) and 1094.6 ± 1.4 m/s in data set [3] (313.15 K). Besides, the mass density in data set [3] (293.15 K) was 790 ± 3 kg/m3; in data set [3] (303.15 K), 779 ± 3 kg/m3; in data set [3] (313.15 K), 767 ± 3 kg/m3. Further, the refractive index in data set [4] (293.15 K) is recorded as 1.359 ± 0.005; in data set [4] (303.15 K), 1.353 ± 0.005; in data set [4] (313.15 K) it was 1.348 ± 0.005.

As to `C[S+](C)[O-]` [dimethyl sulfoxide] + CC(=O)CC(C)C, the speed of sound in data set [3] (293.15 K) is 1504.7 ± 1.4 m/s; in data set [3] (303.15 K), 1471 ± 1.4 m/s; in data set [3] (313.15 K) it was 1437.4 ± 1.4 m/s. Further, the values for the mass density in data set [3] (293.15 K), in data set [3] (303.15 K) and in data set [3] (313.15 K) were 1100 ± 3 kg/m3, 1090 ± 3 kg/m3 and 1080 ± 3 kg/m3, respectively. Further, the refractive index in data set [4] (293.15 K) is listed as 1.48 ± 0.005; in data set [4] (303.15 K) it was 1.475 ± 0.005; in data set [4] (313.15 K) it was 1.47 ± 0.005.

Regarding `C[S+](C)[O-]` [dimethyl sulfoxide], the figures for the speed of sound in data set [1] (293.15 K), in data set [1] (303.15 K) and in data set [1] (313.15 K) were 1504.7 ± 1.4 m/s, 1471 ± 1.4 m/s and 1437.4 ± 1.4 m/s, respectively. The mass density is on record as 1100 ± 3 kg/m3 in data set [1] (293.15 K), 1090 ± 3 kg/m3 in data set [1] (303.15 K) and 1080 ± 3 kg/m3 in data set [1] (313.15 K). The refractive index in data set [2] (293.15 K) was 1.48 ± 0.005 and 1.479 ± 0.005; in data set [2] (303.15 K), 1.475 ± 0.005; in data set [2] (313.15 K), 1.47 ± 0.005.

`CC#N` [acetonitrile] + CC(=O)CC(C)C: the speed of sound in data set [3] (293.15 K) is reported as 1299.7 ± 1.3 m/s; in data set [3] (303.15 K) it was 1258.8 ± 1.3 m/s; in data set [3] (313.15 K), 1218.4 ± 1.3 m/s. Further, the mass density in data set [3] (293.15 K) amounted to 782 ± 3 kg/m3; in data set [3] (303.15 K), 771 ± 3 kg/m3; in data set [3] (313.15 K), 760 ± 3 kg/m3. Besides, the refractive index in data set [4] (293.15 K) stood at 1.344 ± 0.005; in data set [4] (303.15 K) it was 1.339 ± 0.005; in data set [4] (313.15 K), 1.334 ± 0.005.

`C1CCCCC1` [cyclohexane] + CC(=O)CC(C)C: the speed of sound in data set [3] (293.15 K) is recorded as 1279.5 ± 1.4 m/s; in data set [3] (303.15 K), 1230.1 ± 1.4 m/s; in data set [3] (313.15 K), 1181.8 ± 1.4 m/s. Besides, the mass density was 779 ± 3 kg/m3 in data set [3] (293.15 K), 769 ± 3 kg/m3 in data set [3] (303.15 K) and 760 ± 3 kg/m3 in data set [3] (313.15 K). Also, the refractive index in data set [4] (293.15 K) turned out to be 1.426 ± 0.005; in data set [4] (303.15 K), 1.421 ± 0.005; in data set [4] (313.15 K) it was 1.415 ± 0.005.
